Data taken from article PMC5489165, “Identification of benzazole compounds that induce HIV-1 transcription” (PLoS ONE, 2017).
Read-outs that look alike come from different tables or passages of the source.

Experiments:
[1] = Pharmacokinetics in CD-1 mice; assay type: in vivo; conditions: mouse, 10 mg/kg, PO
Description: All animal studies were performed in compliance with IACUC approved protocols at AAALAC-certified animal facilities. Pharmacokinetics of test compounds were evaluated in CD-1 mice (Charles River Laboratories, Wilmington, MA). Compounds were formulated as a suspension in 0.5% hydroxypropylmethyl cellulose with 0.1% Tween 80 and administered by gavage at a dose of 10 mg/kg. […] Mice were anaesthetized with CO2 followed by terminal exsanguination as per the Guide for the Care and Use of Laboratory Animals. Blood was collected by terminal cardiac puncture at 1, 2, 4, 7, 16, and 24 h post-dose (3 mice per time point), and centrifuged to collect plasma. Brain tissue was collected at the time of blood collection and homogenized in water. The concentrations of test compound in plasma and brain tissue were quantified by liquid chromatography-tandem mass spectrometry (LC-MS/MS). Briefly, the plasma and tissue homogenate samples were treated with an acetonitrile-methanol mixture containing an internal standard that is a close structural analog of the test compounds. The treated plasma and brain homogenate samples were centrifuged and the supernatant was collected and analyzed using electro-spray LC-MS/MS.

HIV-1 LTR = experiment: HIV LTR-driven Rluc reporter in HeLa cells; assay type: cell-based; conditions: transfected HeLa cells, 24 h
Description: The vector pGL4.77[hRlucP/Hygro] encoding a Renilla luciferase gene including a PEST destabilization sequence, was purchased from Promega (Madison, WI). HIV-1 cDNA was generated from HIVIIIB virus using PureLink® Viral RNA/DNA Mini Kit (Invitrogen). The HIV-1 core promoter region (nucleotides -105 to 60) was amplified from HIVIIIB cDNA using primers designed with NheI (forward: 5ʹ-GCTAGCGGGACTTTCCGCTGGG-3ʹ) and XhoI (reverse: 5ʹ-CTCGAGAGTGGGTTCCCTAGTTAGCCA-3ʹ) flanking restriction site sequences. DNA fragments were generated using Platinum® Taq DNA Polymerase High Fidelity (Invitrogen) and fragment size was verified by electrophoresis using E-Gel® 1.2% agarose (Invitrogen). Fragments were cloned into pCR™2.1 TOPO® (Invitrogen), transformed into One Shot® TOP10 Chemically Competent E. coli (Invitrogen), and selected on LB-agar plates containing 100 μg/ml ampicillin. Individual colonies were grown in LB broth, DNA was isolated using QIAprep® Spin Miniprep Kit (Qiagen), and the inserted fragment was verified by EcoRI digestion followed by electrophoresis using E-Gel® 1.2% agarose (Invitrogen). To insert the HIV-1 LTR into the vector multiple cloning region, the resultant plasmids and pGL4.77[hRlucP/Hygro] were dually digested with NheI and XhoI (New England Biolabs), ligated using ExpressLink™ T4 DNA Ligase (Invitrogen), transformed into One Shot® TOP10 Chemically Competent E. coli (Invitrogen), and selected on LB-agar plates containing 100 μg/ml ampicillin. Clones were picked and DNA isolated using QIAprep® Spin Miniprep Kit (Qiagen) and the inserted fragment was verified by NheI/XhoI digestion followed by electrophoresis using E-Gel® 1.2% agarose (Invitrogen). The resultant plasmid, pGL4.77-LTR, was verified by sequencing at GENEWIZ (South Plainfield, NJ). […] Luciferase activity was quantified using Renilla Luciferase Assay System (Promega, Madison, WI) and results were normalized to the vehicle-treated control.

[2] = system: HeLa nuclear extracts, HDAC1, HDAC2, HDAC3, HDAC8; experiment: HDAC inhibition assay (fluorometric); assay type: biochemical; conditions: 10 μM
Description: HDAC inhibition was determined using HDAC Fluorometric Activity Assay/Drug Discovery Kit (BIOMOL International, Inc.) according to the manufacturer’s recommendations. HeLa cell nuclear extracts and purified HDACs 1, 2, 3, and 8 were obtained from BIOMOL. Briefly, HDAC inhibitors and test compounds were diluted to 5× concentration in assay buffer in a white, flat-bottom 96-well plate. HDAC samples (purified HDAC or HeLa nuclear extract) were diluted to the desired concentration in assay buffer and added to each well. HeLa extract was employed at a 150-fold dilution, while individual HDACs were tested at 0.3–9 μg/ml. Fluor de Lys™ substrate was diluted to 2× concentration in assay buffer and the HDAC reaction was initiated by addition of substrate to each well followed by incubation for 60 min at room temperature. A final concentration of 0.4% DMSO and 50 μM Fluor de Lys™ substrate was present in all samples. Samples with no enzyme were used as blanks and vehicle-only samples were used as negative controls. HDAC reactions were quenched by adding Fluor de Lys™ developer containing 2 μM trichostatin A. Plates were incubated at room temperature for 15 min prior to reading fluorescence for 0.1 s with an excitation wavelength of 360 nm and emission of 460 nm using a 5 nm slit on a Cary Eclipse Fluorescence Spectrophotometer (Varian, Inc.). […]

[3] = CD-1, brain, read-out: AUC0-24, brain
[4] = CD-1, plasma, read-out: AUC0-24, plasma

SMILES: Nc1ccc2[nH]c(-c3ccc(-c4nc5cc(N)ccc5o4)cc3)nc2c1 [Compound 1, 2-(4-(5-amino-1H-benzimidazol-2-yl)phenyl)benzoxazol-5-amine]
- AUC(0-t) [1, 3]: 0.12 µM·h
- Cmax ([1]; CD-1, plasma): 550 nM
- AUC(0-t) [1, 4]: 2.2 µM·h
- Cmax, brain [1]: 65 nM
- Transcription driven by the HIV-1 LTR (in words) (HIV-1 LTR): did not significantly increase transcription
- HDAC inhibitory activity (in words) [2]: no HDAC inhibitory activity

SMILES: Nc1ccc2[nH]c(-c3ccc(-c4nc5ccc(N)cc5o4)cc3)nc2c1 [Compound 2]
- AUC(0-t) [1, 3]: 0.054 µM·h
- Cmax ([1]; CD-1, plasma): 180 nM
- AUC(0-t) [1, 4]: 0.92 µM·h
- Cmax, brain [1]: 54 nM
- Transcription driven by the HIV-1 LTR (in words) (HIV-1 LTR): did not significantly increase transcription
- HDAC inhibitory activity (in words) [2]: no HDAC inhibitory activity
